Experimental data reported in patent US6103883A (priority 1999, dated 2000).

biological target: T1, verotoxin binding to Gb3 (Enterobacteria phage H19B, UniProt P69179); conditions: spectrophotometric detection; FIG. 6B

| Structure (SMILES) | inhibition of binding of verotoxin to Gb3 |
| --- | --- |
| O=C(CC12CC3CC(CC(C3)C1)C2)NC(CO[C@@H]1O[C@H](CO)[C@@H](O[C@@H]2O[C@H](CO)[C@H](O[C@H]3O[C@H](CO)[C@H](O)[C@H](O)[C@H]3O)[C@H](O)[C@H]2O)[C@H](O)[C@H]1O)C(O)C(=O)O (stereo partly shown) [Compound A1] | do not appear to be effective inhibitors |
| CCCCCCCCCCCCC/C=C/[C@@H](O)[C@H](CO[C@@H]1O[C@H](CO)[C@@H](O[C@@H]2O[C@H](CO)[C@H](O[C@H]3O[C@H](CO)[C@H](O)[C@H](O)[C@H]3O)[C@H](O)[C@H]2O)[C@H](O)[C@H]1O)NC(=O)CC12CC3CC(CC(C3)C1)C2 [Compound A3] | effective water-soluble inhibitor |
| CCCCCCCCCCCCC/C=C/[C@@H](O)[C@H](CO[C@@H]1O[C@H](CO)[C@H](O)[C@H](O)[C@H]1O)NC(=O)CC12CC3CC(CC(C3)C1)C2 [Compound B1] | do not appear to be effective inhibitors |
| O=C(CC12CC3CC(CC(C3)C1)C2)NC(CO[C@@H]1O[C@H](CO)[C@H](O)[C@H](O)[C@H]1O)C(O)C(=O)O (stereo partly shown) [Compound B2] | do not appear to be effective inhibitors |

biological target: T1, verotoxin binding to Gb3; conditions: competition with radiolabelled verotoxin 1; FIG. 5C

| Structure (SMILES) | inhibition of verotoxin binding to Gb3 |
| --- | --- |
| CN(C)C(CO[C@@H]1O[C@H](CO)[C@@H](O[C@@H]2O[C@H](CO)[C@H](O[C@H]3O[C@H](CO)[C@H](O)[C@H](O)[C@H]3O)[C@H](O)[C@H]2O)[C@H](O)[C@H]1O)C(O)C(=O)NC12CC3CC(CC(C3)C1)C2 (stereo partly shown) [Compound A] | effective inhibition |
| CN(C)C(CO[C@@H]1O[C@H](CO)[C@@H](O[C@@H]2O[C@H](CO)[C@H](O[C@H]3O[C@H](CO)[C@H](O)[C@H](O)[C@H]3O)[C@H](O)[C@H]2O)[C@H](O)[C@H]1O)C(O)C(=O)Nc1c2c(nc3ccccc13)CCCC2 (stereo partly shown) [Compound B] | effective inhibition |
| OC[C@H]1O[C@H](O[C@@H]2[C@H](O)[C@@H](O)[C@H](O[C@H]3[C@H](O)[C@@H](O)C(O)O[C@@H]3CO)O[C@@H]2CO)[C@H](O)[C@@H](O)[C@H]1O (stereo partly shown) [Gb3 -sugar, globotriaose, reference compound] | virtually no inhibition |
